Measurements taken from patent US7589057B2, “Oil-in-water method for making alpha-2 agonist polymeric drug delivery systems” (Allergan, Inc., priority 2004, dated 2009).
Converted amounts (≈) assume the structure as drawn.

How the values were obtained:
[1] = Effects of gamma sterilization on the stability of bimatoprost; type: physicochemical
Method: The formula abbreviations correspond to compounds illustrated in FIGS. 2A-2F. High performance liquid chromatography was used to quantify bimatoprost and impurities present in the microparticles. Analytes were eluted from a Waters Symmetry® C18 reverse-phase column using a mobile phase composed of 72/18/10 (water/acetonitrile/methanol v/v/v) containing 0.03% (w/v) trifluoroacetic acid. UV detection was performed at 210 nm.

[2] = type: physicochemical
Source text: (§1) FIGS. 2A, 2B, 2C, 2D, 2E, and 2F illustrate the chemical structure of bimatoprost (AGN 192024, FIG. 2A), 15β bimatoprost (FIG. 2B); 5,6-trans bimatoprost isomer (FIG. 2C); C1 acid of bimatoprost (FIG. 2D); triphenyphosphine oxide (TPPO; FIG. 2E); and 15-Keto bimatoprost (FIG. 2F). Bimatoprost is the active ingredient and the other chemicals are impurities that may be present. […] Bimatoprost is a non-ionizable compound.

[3] = Ionisability of bimatoprost; type: physicochemical
Source text: as §1

[4] = Solubility of bimatoprost in water; type: physicochemical; settings: room temperature
Source text: as §1

- % wt/wt 5,6-trans ([1]; gamma sterilized): 0.1 % wt/wt
- % wt/wt 15β ([1]; gamma sterilized): 0.1 % wt/wt
- % wt/wt bimatoprost ([1]; gamma sterilized): 85.3 % wt/wt
- % wt/wt, 15-keto ([1]; gamma sterilized): 2.3 % wt/wt
- decrease of the amount of active bimatoprost by gamma sterilization ([1]; gamma sterilized vs none sterilized): about 10%
- % wt/wt 5,6-trans ([1]; none sterilized): 0.1 % wt/wt
- % wt/wt 15β ([1]; none sterilized): 0.2 % wt/wt
- % wt/wt bimatoprost ([1]; none sterilized): 95.3 % wt/wt
- % wt/wt, 15-keto ([1]; none sterilized): 1.0 % wt/wt
- partition coefficient Log P [2]: 2.4 plus or minus 0.1
- ionisability [3]: non-ionizable
- solubility [4]: 3.2 mg/mL (≈ 7.7 mM)
Compound: CCNC(=O)CCC/C=C\C[C@@H]1[C@@H](/C=C/[C@@H](O)CCc2ccccc2)[C@H](O)C[C@@H]1O [Bimatoprost]
